Entries after “also recorded” stand apart in the source; their conditions may differ. Counter-ions that a name gives are not always drawn.
Assays:
optic nerves = assay: Optic nerve ischaemia (OGD), tissue damage by LDH release; design: species or system rats; conditions: P28 rat optic nerves, 1h OGD + 2h reperfusion; PPADS 1 mM, BBG 50 nM, oATP 1 mM, apyrase 20 U/ml, MFQ 1 µM, CBX 100 µM, FFA 1 mM
Description: (§1) After 1h OGD at 37°C, the medium was replaced with fresh solution containing glucose and equilibrated with 95% O2, 5% CO2 and the nerves were incubated for another 2h at 37°C to simulate reperfusion.

[1] = test system: cultured optic nerve oligodendrocytes; assay: ATP release measurement (luciferin/luciferase) in oligodendrocyte cultures after OGD; assay type: cell-based, Sprague-Dawley rats; conditions: 1h OGD in the presence of ARL67156; CBX 20 µM, FFA 100 µM, MFQ 1 nM (figure legend)
Description: (§2) Primary cultures of oligodendrocytes derived from optic nerves of 12 day-old Sprague-Dawley rats were obtained as previously described (Matute et al., 1997 Proc Natl Acad Sci U S A 94:8830-8835.).Cells were maintained at 37°C and 5% CO2 in a chemically defined medium (Matute et al., 1997 Proc Natl Acad Sci U S A 94:8830-8835.). After 2-4 days in vitro, cultures were composed of at least 98% 04/Ga1C^+ cells. No microglial cells were detected in these cultures. […] Cell death was determined 24h later using calcein-AM (Invitrogen) as previously described (Matute et al., 1997 Proc Natl Acad Sci U S A 94:8830-8835.). Antagonists were present during in vitro ischaemia and during the next 24h incubation period. […] To assay the levels of reactive oxygen species (ROS), cells were loaded with 40 µM 2',7'- dichlorodihyfluoresceindiacetate (DCFDA; Invitrogen) and 1 µM calcein red-orange (Molecular Probes) immediately after OGD. Calcein was used to quantify the number of cells within the reading field. Fluorescence was measured as above and values were plotted as the percentage of DCFDA/calcein red-orange fluorescence versus control. The changes in mitochondrial membrane potential were monitored with 5,5',6,6'-tetrachloro-1,1',3,3'-tetraethylbenzimidazolcarbocyanine iodide (JC-1; Molecular Probes). Immediately after OGD, cells were loaded with JC-1 (3 µM) at 37°C for 30 min. The changes in the membrane potential were calculated as the red (emission at 590)/green (emission at 520) ratio in each condition and results were normalized to control.
(§3) ATP levels were measured using a Luciferin/Luciferase assay kit (Invitrogen) after 1h normoxia or OGD in oligodendrocyte cultures and in isolated optic nerves according to the manufacturer's instructions. The luminescence was measured with a luminometer Synergy-HT (BioTek) with an integration time of 3 sec. Because ATP was measured in the culture medium and in the solution bathing optic nerves, the concentration of ATP at the extracellular surface, near the vicinity of the receptor was underestimated (Joseph et al., 2003. J Biol Chem 278:23331-23342). The limit of ATP detection was 1 nM and luminescence was linear with increasing ATP concentrations to 1000 nM. The total amount of ATP was calculated according to standard curves and ATP release was expressed in percentage vs control.

optic nerve = assay: ATP release measurement (luciferin/luciferase) in isolated optic nerves after OGD; design: species or system rats; conditions: MFQ 1 µM, CBX 100 µM
Description: as §3, §1

[2] = target: T1, P2X7 receptors in oligodendrocytes (Rattus norvegicus, UniProt Q64663); assay: ATP-evoked inward currents in whole-cell clamped oligodendrocytes; assay type: cell-based, Sprague-Dawley rats; conditions: -70 mV; CBX 20 µM, MFQ 1 nM
T1 construct: ATP (1 mM)-evoked inward currents in whole-cell clamped oligodendrocytes at -70 mV; endogenous in cells; host or cells: primary rat optic nerve oligodendrocytes
T1 sequence (Q64663 1-595): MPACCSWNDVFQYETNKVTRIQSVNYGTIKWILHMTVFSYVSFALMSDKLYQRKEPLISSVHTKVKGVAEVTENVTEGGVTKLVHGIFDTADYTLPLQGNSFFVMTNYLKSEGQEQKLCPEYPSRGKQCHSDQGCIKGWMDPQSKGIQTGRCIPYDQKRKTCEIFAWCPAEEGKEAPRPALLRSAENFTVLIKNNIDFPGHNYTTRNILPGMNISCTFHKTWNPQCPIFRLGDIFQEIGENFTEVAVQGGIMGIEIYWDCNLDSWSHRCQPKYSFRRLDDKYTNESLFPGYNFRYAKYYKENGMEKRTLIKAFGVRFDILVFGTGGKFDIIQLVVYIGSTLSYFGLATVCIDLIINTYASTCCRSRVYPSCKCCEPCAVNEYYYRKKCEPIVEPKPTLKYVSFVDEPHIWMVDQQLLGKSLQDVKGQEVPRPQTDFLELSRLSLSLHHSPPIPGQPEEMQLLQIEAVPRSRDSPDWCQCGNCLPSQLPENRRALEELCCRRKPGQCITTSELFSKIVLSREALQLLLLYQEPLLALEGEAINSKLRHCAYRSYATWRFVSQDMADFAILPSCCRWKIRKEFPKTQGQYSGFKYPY
Description: Primary cultures of oligodendrocytes derived from optic nerves of 12 day-old Sprague-Dawley rats were obtained as previously described (Matute et al., 1997 Proc Natl Acad Sci U S A 94:8830-8835.).Cells were maintained at 37°C and 5% CO2 in a chemically defined medium (Matute et al., 1997 Proc Natl Acad Sci U S A 94:8830-8835.). After 2-4 days in vitro, cultures were composed of at least 98% 04/Ga1C^+ cells. No microglial cells were detected in these cultures. […] Cell death was determined 24h later using calcein-AM (Invitrogen) as previously described (Matute et al., 1997 Proc Natl Acad Sci U S A 94:8830-8835.). […] Calcein was used to quantify the number of cells within the reading field. Fluorescence was measured as above and values were plotted as the percentage of DCFDA/calcein red-orange fluorescence versus control. The changes in mitochondrial membrane potential were monitored with 5,5',6,6'-tetrachloro-1,1',3,3'-tetraethylbenzimidazolcarbocyanine iodide (JC-1; Molecular Probes). […] The changes in the membrane potential were calculated as the red (emission at 590)/green (emission at 520) ratio in each condition and results were normalized to control.
Whole cell recordings were performed at room temperature and at a holding membrane potential of -70 mV. […] Data were analyzed with Excel and Prism software.

[3] = test system: optic nerve oligodendrocytes; assay: Oxygen and glucose deprivation (OGD) cell death in oligodendrocyte cultures (calcein-AM); assay type: cell-based, Sprague-Dawley rats; conditions: 1h OGD, calcein 24h later; PPADS 100 µM, BBG 50 nM, CNQX 30 µM, APV 100 µM, apyrase 20 U/ml, ARL67156 100 µM, CBX 20 µM, FFA 100 µM, MFQ 1 nM
Description: as §2

[4] = test system: AMPA and kainate receptors; assay: Glutamate receptor agonist (AMPA, kainate) induced oligodendrocyte death (calcein fluorescence); assay type: cell-based, Sprague-Dawley rats; conditions: AMPA (100 µM) + cyclothiazide (100 µM), or kainate (3 mM) + GYKI 53655 (50 µM); PPADS 100 µM, BBG 50 nM
Description: (§4) Primary cultures of oligodendrocytes derived from optic nerves of 12 day-old Sprague-Dawley rats were obtained as previously described (Matute et al., 1997 Proc Natl Acad Sci U S A 94:8830-8835.).Cells were maintained at 37°C and 5% CO2 in a chemically defined medium (Matute et al., 1997 Proc Natl Acad Sci U S A 94:8830-8835.). After 2-4 days in vitro, cultures were composed of at least 98% 04/Ga1C^+ cells. No microglial cells were detected in these cultures. […] Cell death was determined 24h later using calcein-AM (Invitrogen) as previously described (Matute et al., 1997 Proc Natl Acad Sci U S A 94:8830-8835.). Antagonists were present during in vitro ischaemia and during the next 24h incubation period. […] Calcein was used to quantify the number of cells within the reading field. Fluorescence was measured as above and values were plotted as the percentage of DCFDA/calcein red-orange fluorescence versus control. The changes in mitochondrial membrane potential were monitored with 5,5',6,6'-tetrachloro-1,1',3,3'-tetraethylbenzimidazolcarbocyanine iodide (JC-1; Molecular Probes). […] The changes in the membrane potential were calculated as the red (emission at 590)/green (emission at 520) ratio in each condition and results were normalized to control.

[5] = test system: optic nerve oligodendrocytes; assay: Whole-cell recording of ischaemic inward current in cultured oligodendrocytes (chemical ischaemia); assay type: cell-based, Sprague-Dawley rats
Description: After 2-4 days in vitro, cultures were composed of at least 98% 04/Ga1C^+ cells. No microglial cells were detected in these cultures. […] Cell death was determined 24h later using calcein-AM (Invitrogen) as previously described (Matute et al., 1997 Proc Natl Acad Sci U S A 94:8830-8835.). Antagonists were present during in vitro ischaemia and during the next 24h incubation period. […] Calcein was used to quantify the number of cells within the reading field. Fluorescence was measured as above and values were plotted as the percentage of DCFDA/calcein red-orange fluorescence versus control. […] Molecular Probes). […] The changes in the membrane potential were calculated as the red (emission at 590)/green (emission at 520) ratio in each condition and results were normalized to control. Whole cell recordings were performed at room temperature and at a holding membrane potential of -70 mV. Extracellular bath solution with a pH of 7.3 contained (in mM): […] Patch clamp pipettes (3-5 MΩ) were filled with internal solution at a pH of 7.3 containing (in mM): CsCI 140, CaC12 2, MgC12 2, HEPES 10, EGTA 11, Na-ATP 2. For electrophysiology monitoring, ischaemia was induced chemically by using the glycolytic blocker iodoacetate (1 mM) and the oxidative phosphorylation inhibitor antimycin (2.5 μM), and omitting glucose because recordings were performed in an open chamber where O2 can diffuse to the cells (Káradóttir et al., 2005). Recordings of ATP currents were performed in divalent cation-free extracellular solutions, obtained by omitting Ca^2+ and Mg^2+, to potentiate P2X-mediated responses (Matute et al., 1997 Proc Natl Acad Sci U S A 94:8830-8835.). […] Molecular Probes, Inc., Eugene, OR) in culture medium for 30 min at 37 °C. Experiments were carried out in a coverslip chamber continuously perfused with a buffer containing 20 mM HEPES, 2 mM CaC12, 10 mM glucose in HBSS at 1 ml/min. The perfusion chamber was mounted on the stage of a Zeiss inverted epifluorescence microscope (Axiovert 35), equipped with a 150 W xenon lamp Polychrome IV (TILL Photonics GMBH) and a Plan Neofluar 40x oil immersion objective (Zeiss, Germany). Cells were visualized with a high resolution digital B/W CCD camera (ORCA; Hamamatsu Photonics Iberica, Barcelona, Spain) and image acquisition and data analysis were carried out using the AquaCosmos software program (Hamamatsu Photonics Iberica). Images were acquired every 30 ms at 37°C and ischaemia was induced as above. […] At the end of the assay, in situ calibration was carried out with the successive addition of […] and 2M Tris/50 mM EGTA, pH 8.5. Data were analyzed with Excel and Prism software.

[6] = test system: optic nerve oligodendrocytes; assay: Mitochondrial membrane potential (JC-1) after OGD in oligodendrocyte cultures; assay type: cell-based, Sprague-Dawley rats; conditions: 1 h OGD; BBG 50 nM, PPADS 100 µM
Description: as §4

P2X6 = P2X6 (Homo sapiens, UniProt O15547); conditions: read-out: IC50 P2X6; cited from earlier work
[7] = test system: optic nerve oligodendrocytes; assay: Reactive oxygen species (DCFDA) after OGD in oligodendrocyte cultures; assay type: cell-based, Sprague-Dawley rats; conditions: 1 h OGD; BBG 50 nM, PPADS 100 µM
Description: as §4

P2X1 = target: T2, P2X1 (Homo sapiens, UniProt P51575); conditions: read-out: IC50 P2X1; cited from earlier work
T2 sequence (P51575 1-399): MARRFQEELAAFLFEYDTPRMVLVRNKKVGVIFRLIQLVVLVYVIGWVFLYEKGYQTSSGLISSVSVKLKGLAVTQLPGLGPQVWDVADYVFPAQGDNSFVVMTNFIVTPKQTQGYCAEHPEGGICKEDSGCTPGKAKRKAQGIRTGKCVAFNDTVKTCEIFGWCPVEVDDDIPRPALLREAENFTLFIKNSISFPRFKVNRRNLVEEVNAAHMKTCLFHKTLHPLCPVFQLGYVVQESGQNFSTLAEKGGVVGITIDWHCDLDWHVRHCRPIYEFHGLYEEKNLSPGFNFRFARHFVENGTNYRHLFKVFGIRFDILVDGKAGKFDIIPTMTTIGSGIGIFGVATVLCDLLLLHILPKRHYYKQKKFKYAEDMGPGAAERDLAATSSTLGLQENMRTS

[8] = test system: optic nerve oligodendrocytes; assay: Ca2+ imaging (fura-2) of oligodendrocytes during chemical ischaemia; assay type: cell-based, Sprague-Dawley rats; conditions: chemical ischaemia; PPADS 100 µM, oATP 1 mM
Description: After 2-4 days in vitro, cultures were composed of at least 98% 04/Ga1C^+ cells. No microglial cells were detected in these cultures. […] Cell death was determined 24h later using calcein-AM (Invitrogen) as previously described (Matute et al., 1997 Proc Natl Acad Sci U S A 94:8830-8835.). Antagonists were present during in vitro ischaemia and during the next 24h incubation period. […] Calcein was used to quantify the number of cells within the reading field. Fluorescence was measured as above and values were plotted as the percentage of DCFDA/calcein red-orange fluorescence versus control. […] Molecular Probes). […] The changes in the membrane potential were calculated as the red (emission at 590)/green (emission at 520) ratio in each condition and results were normalized to control. Whole cell recordings were performed at room temperature and at a holding membrane potential of -70 mV. Extracellular bath solution with a pH of 7.3 contained (in mM): […] Patch clamp pipettes (3-5 MΩ) were filled with internal solution at a pH of 7.3 containing (in mM): CsCI 140, CaC12 2, MgC12 2, HEPES 10, EGTA 11, Na-ATP 2. […] Data were analyzed with Excel and Prism software.

Chain of P2X6 (O15547 whole entry, species assumed): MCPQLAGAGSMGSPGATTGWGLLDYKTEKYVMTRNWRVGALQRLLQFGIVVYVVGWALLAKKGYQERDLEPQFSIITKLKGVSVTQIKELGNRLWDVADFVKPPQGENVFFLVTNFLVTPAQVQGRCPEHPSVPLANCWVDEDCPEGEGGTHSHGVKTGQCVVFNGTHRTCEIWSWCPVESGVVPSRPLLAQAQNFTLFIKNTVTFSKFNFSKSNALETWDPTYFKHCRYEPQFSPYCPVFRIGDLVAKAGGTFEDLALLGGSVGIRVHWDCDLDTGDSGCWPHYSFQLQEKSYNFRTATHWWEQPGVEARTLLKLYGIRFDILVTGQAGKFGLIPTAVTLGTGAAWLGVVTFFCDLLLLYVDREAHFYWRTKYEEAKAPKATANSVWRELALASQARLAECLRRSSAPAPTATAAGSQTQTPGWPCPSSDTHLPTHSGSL

SMILES	ischaemia-induced damage to optic nerves (LDH release) (optic nerves)	ATP levels after OGD [1]	ATP levels during OGD (optic nerve)	ATP (1 mM)-evoked inward currents [2]	OGD-induced oligodendrocyte cell death [3]	glutamate receptor-induced oligodendrocyte death [4]	OGD currents after drug application versus OGD currents before drug application ([5]; after washing the antagonists out, average over BBG and PPADS, n= 15) [%]	ischaemic inward currents ([5]; chemical ischaemia (iodoacetate, antimycin, no glucose), -70 mV, PPADS 100 µM, oATP 1 mM, BBG 50 nM)	mitochondrial depolarization [6]	IC50 (P2X6) [µM]	generation of radical oxygen species (ROS) [7]	IC50 (P2X1) [µM]	increase in [Ca2+]i caused by ischaemia [8]
CC1(C)[C@@H](OC(=O)CCC(=O)O)CC[C@]2(C)[C@H]3C(=O)C=C4[C@@H]5C[C@@](C)(C(=O)O)CC[C@]5(C)CC[C@@]4(C)[C@]3(C)CC[C@@H]12 [CBX]	reduced; also recorded: attenuated	significantly reduced	reduced	not reduced	inhibited								
OC(c1cc(C(F)(F)F)nc2c(C(F)(F)F)cccc12)C1CCCCN1 [MFQ, [8-bis(trifluoromethyl)quinolin-4-yl]-[(2R)-piperidin-2-yl]methanol]	reduced; also recorded: attenuated	significantly reduced	reduced	not reduced	inhibited								
Cc1nc(N=Nc2ccc(S(=O)(=O)O)cc2S(=O)(=O)O)c(COP(=O)(O)O)c(C=O)c1O [PPADS, tetrasodium salt of pyridoxalphosphate-6-azophenyl-2',4'-disulfonic acid]	prevented; also recorded: reduced				significantly reduced	did not significantly inhibit	134 ± 32	significantly reduced	prevented	> 100	prevented	1 to 5	significantly blocked; also recorded: significantly reduced
